Assay results: patent publication US20040224910A1, “Recombinant nematode nicotinic receptor and uses” (priority 1999, published 2004)
Entries after “also recorded” stand apart in the source; their conditions may differ.

Molecular target: T1, heterotrimeric UNC-63, UNC-29, LEV-1 receptor (Caenorhabditis elegans, UniProt P48181+Q27218+Q9N587)
T1 construct: used to generate a full length cDNA clone by 3′ RACE on Marathon cDNA; expressed in transfected cells; host or cells: Xenopus laevis oocytes (nuclear injection of pMT3 cDNA constructs)
T1 sequence (P48181 27-493): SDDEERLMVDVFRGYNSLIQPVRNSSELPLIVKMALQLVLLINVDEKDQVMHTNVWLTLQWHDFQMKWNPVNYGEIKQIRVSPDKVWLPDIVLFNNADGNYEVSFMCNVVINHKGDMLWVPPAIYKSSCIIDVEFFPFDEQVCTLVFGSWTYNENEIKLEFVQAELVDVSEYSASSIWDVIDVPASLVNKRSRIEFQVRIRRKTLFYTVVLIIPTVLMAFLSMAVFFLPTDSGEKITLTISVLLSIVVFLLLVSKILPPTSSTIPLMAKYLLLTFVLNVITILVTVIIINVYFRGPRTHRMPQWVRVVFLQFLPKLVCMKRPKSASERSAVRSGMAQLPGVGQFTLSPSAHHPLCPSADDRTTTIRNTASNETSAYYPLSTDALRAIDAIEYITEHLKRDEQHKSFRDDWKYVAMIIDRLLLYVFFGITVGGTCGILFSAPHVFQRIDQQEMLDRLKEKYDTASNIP
T1 sequence (Q27218 32-507): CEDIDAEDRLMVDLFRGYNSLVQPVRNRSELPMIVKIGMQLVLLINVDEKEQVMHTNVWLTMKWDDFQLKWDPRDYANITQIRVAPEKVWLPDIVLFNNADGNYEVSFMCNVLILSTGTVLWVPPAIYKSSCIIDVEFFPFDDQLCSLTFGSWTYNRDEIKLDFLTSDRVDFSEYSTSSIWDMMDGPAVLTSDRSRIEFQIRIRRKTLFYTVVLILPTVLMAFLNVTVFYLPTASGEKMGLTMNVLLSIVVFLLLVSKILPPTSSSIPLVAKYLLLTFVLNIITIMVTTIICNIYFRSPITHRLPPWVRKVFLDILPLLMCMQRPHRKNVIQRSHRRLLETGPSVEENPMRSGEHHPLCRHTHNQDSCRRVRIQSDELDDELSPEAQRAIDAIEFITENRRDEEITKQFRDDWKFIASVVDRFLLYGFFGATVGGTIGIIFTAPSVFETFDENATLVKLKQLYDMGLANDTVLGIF
T1 sequence (Q9N587 24-502): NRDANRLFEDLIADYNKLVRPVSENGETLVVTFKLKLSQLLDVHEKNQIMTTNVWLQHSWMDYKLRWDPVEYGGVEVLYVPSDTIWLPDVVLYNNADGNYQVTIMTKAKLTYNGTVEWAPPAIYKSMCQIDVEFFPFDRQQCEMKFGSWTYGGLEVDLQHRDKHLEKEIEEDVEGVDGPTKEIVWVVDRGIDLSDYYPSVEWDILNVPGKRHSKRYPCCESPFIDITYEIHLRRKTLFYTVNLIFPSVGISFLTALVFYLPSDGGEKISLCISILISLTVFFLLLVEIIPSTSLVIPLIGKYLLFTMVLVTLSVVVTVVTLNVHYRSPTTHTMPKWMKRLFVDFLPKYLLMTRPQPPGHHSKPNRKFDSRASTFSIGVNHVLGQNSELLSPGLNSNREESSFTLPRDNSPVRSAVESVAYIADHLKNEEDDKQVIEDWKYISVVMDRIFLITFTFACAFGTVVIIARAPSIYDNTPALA
Assay: Two-electrode voltage-clamp of recombinant nAChR expressed in Xenopus laevis oocytes
Type: cell-based, C. elegans
Details: for agonist activity on the expressed receptor: holding potential -100 mV
Procedure: Ovaries were surgically removed from anaesthetised mature female Xenopus laevis. The follicle layers were manually removed from healthy stage V and VI oocytes following a 15 min incubation with collagenase (type IA, 2 mg ml^−1) in a calcium-free version of standard oocyte saline. The composition of SOS was as follows (mM): NaCl 100, KCl 2, CaCl2 1.8, MgCl2 1 and HEPES 5; pH 7.6. In calcium-free saline, the CaCl2 was replaced by 1.8 mM BaCl2. […] The nucleus of each oocyte was injected with 20 nl of DNA (0.1 μg μl^−1). The injected oocytes were transferred to incubation medium composed of SOS supplemented with penicillin (100 units ml^−1), streptomycin (100 μg ml^−1), gentamycin (50 μg ml^−1) and 2.5 mM sodium pyruvate and placed at 4° C. for 30 min immediately after injection to enable recovery. Oocytes were maintained at 16° C. for 2-4 days prior to electrophysiological studies.
Oocytes were restrained with entomological pins in a Perspex chamber (80 μl volume) with a Sylgard base and perfused continuously (5 ml min^−1) with SOS using a gravity-fed system. Membrane currents were measured by the two-electrode voltage-clamp method, using 3M KCl filled electrodes (resistance=0.5-5 MΩ) and either a Geneclamp amplifier (Axon Instruments). The oocyte membrane potential was clamped at −100 mV. Signals were digitized by a TL-1 interface (Axon Instruments, U.S.A).

SMILES	agonist activity on the expressed receptor (Xenopus oocytes)	block of the agonist action of levamisole (10 μM mecamylamine, Xenopus oocytes (FIG. 6))	antagonism of ACh-induced currents (10 μM, Xenopus oocytes)
CC(=O)OCC[N+](C)(C)C.[Cl-] [ACh, Acetylcholine chloride]	full agonist	–	–
CNC1(C)C2CCC(C2)C1(C)C (centres unmarked) [Mecamylamine, mecamylamine]	–	blocked	effective antagonist
c1ccc([C@H]2CN3CCSC3=N2)cc1 [levamisole]	partial agonists; also recorded: partial agonist activity	–	–
CN1CCCC1c1cccnc1 (centres unmarked) [nicotine]	partial agonists; also recorded: partial agonist activity	–	–
